Reference: patent US20260234555A1 (priority 2022, published 2026)

Test system: mouse salivary gland organoids

Row | SMILES | effect on the morphology and growth of the organoids | changes in the morphology and growth of the organoids
1 | CC(=O)OCC[N+](C)(C)C.[Cl-] [acetylcholine, Acetylcholine chloride] | no effect | 
2 | CN(C)C(=O)Oc1cccc([N+](C)(C)C)c1 [neostigmine, Neostigmine bromide] |  | no significant changes
